Data taken from patent US20260071220A1, “CONJUGATE OF NUCLEOTIDE ANALOG-CONTAINING DOUBLE-STRANDED RNAI ANALOG” (BaseCure Therapeutics LLC, priority 2022, published 2026).
In the oligonucleotide strings, read from the 5' end, every base follows the letter of its sugar. An asterisk marks phosphorothioate; unmarked linkages are phosphodiester. Other units and linkages are bracketed, terminal groups are in braces. A string of capitals states the bases alone. {D01} = GalNAc ligand D01, attached to sense strand by a phosphodiester bond; m = 2'-O-methyl; f = 2'-fluoro

System: AGT mRNA
Assay: Compound activity experiment in Huh7 cell line (transfection, AGT mRNA by qPCR)
Assay type: cell-based, human
Conditions: Huh7, RNAiMAX transfection, 24 h
Procedure: 1. Objective: this study aims to evaluate the inhibitory effect of the conjugate described in this patent on a target gene using a Huh7 cell line. The inhibitory activity of the compound on target gene AGT is evaluated based on the EC50 value of the compound as an index.
Huh7 cells were provided by Shanghai WuXi AppTec New Drug Development Co., Ltd. Hub7 cells were cultured in MEM medium containing 10% fetal bovine serum and 1% penicillin streptomycin.
1) On Day 1, a mixed solution of an RNAiMAX transfection reagent and Opti-MEM was prepared as needed in a ratio of RNAiMAX transfection reagent:Opti-MEM=1.5:48.5, and incubated for 15 min at room temperature;
2) For cells in each well, a certain amount of diluted compound was taken and added into an equal amount of RNAiMAX Optim-MEM medium to be mixed well, and then incubated for 15 min;
3) Huh7 cells were taken and washed with DPBS, digested with trypsin, and the density of the cells was adjusted to an appropriate density;
4) The cells were seeded into a 96-well plate at a density of 2,0000 cells/well while adding a mixture of 20 μL Opti-MEM RNAiMax and the compound into the cell culture plate, and the volume of the final medium for each well was 120 μL.
5) The cells were incubated for 24 h in an incubator under the conditions of 5% CO2 and 37° C. […]
The cDNA of the target gene was detected by qPCR. qPCR was carried out in a 384-well plate using GAPDH as an internal reference gene. […]
This method requires the introduction of the internal reference gene GAPDH, as the internal reference gene is expressed in all the cells and its product is necessary for maintaining cell survival; and the expression level or copy number of the genome in cells remains constant and is less affected by environmental factors. After qRT-PCR, the CT value of the internal reference will also be recorded, called Ct (GAPDH), and the CT value of the sample is called Ct (sample).

## Conjugate 2: Double-stranded RNAi analog against AGT, D01 GalNAc ligand on sense strand; sense SEQ ID NO: 6, antisense SEQ ID NO: 2 containing Z (sense mA*mU*fCfCmAfCfAfAmUmGmAmGmAfGmUmAmCmA-{D01}; antisense CUCACAUGUACNCUCAUUGUGGAUGACGA; antisense: chemistry not given here; antisense strand modified, includes nucleotide analog Z, further chemistry not fully specified)
  Emax (remaining AGT mRNA): 5%
AGT mRNA, read-out: Absolute EC50
  EC50: 5.92 pM
Log of the absolute EC50 (matches nM)
  Log (concentration): −2.228
